± gives the expanded uncertainty stated by the source.
Tests used:
[1] = 101.33 kPa, Liquid, Vibrating tube method
[2] = refractive index (Na D-line) (dimensionless); settings: 101.33 kPa, Liquid, Standard Abbe refractometry

CCCC[n+]1ccn(C)c1.O=S(=O)([N-]S(=O)(=O)C(F)(F)F)C(F)(F)F
mass density ([1]; 293.15 K): 1440.8 ± 2.1 kg/m3
mass density ([1]; 298.15 K): 1436 ± 2.1 kg/m3
mass density ([1]; 313.15 K): 1421.6 ± 2.1 kg/m3
mass density ([1]; 333.15 K): 1402.6 ± 2.1 kg/m3
refractive index ([2]; 293.15 K): 1.42853 ± 0.0008
refractive index ([2]; 298.15 K): 1.42653 ± 0.00075
refractive index ([2]; 313.15 K): 1.42251 ± 0.00075
refractive index ([2]; 333.15 K): 1.41648 ± 0.00076

CCCCCCCC[n+]1ccn(C)c1.F[P-](F)(F)(F)(F)F [1-octyl-3-methylimidazolium hexafluorophosphate]
mass density ([1]; 293.15 K): 1237.8 ± 2 kg/m3
mass density ([1]; 298.15 K): 1234 ± 2 kg/m3
mass density ([1]; 313.15 K): 1222.4 ± 2 kg/m3
mass density ([1]; 333.15 K): 1207.5 ± 2 kg/m3
refractive index ([2]; 293.15 K): 1.42452 ± 0.00072
refractive index ([2]; 298.15 K): 1.42351 ± 0.00074
refractive index ([2]; 313.15 K): 1.41949 ± 0.00075
refractive index ([2]; 333.15 K): 1.41347 ± 0.00076

CCCCCCCCCCCCCC[P+](CCCCCC)(CCCCCC)CCCCCC.O=S(=O)([O-])C(F)(F)F
mass density ([1]; 293.15 K): 985.6 ± 2 kg/m3
mass density ([1]; 298.15 K): 982.3 ± 2 kg/m3
mass density ([1]; 313.15 K): 972.5 ± 2 kg/m3
mass density ([1]; 333.15 K): 959.6 ± 2 kg/m3
refractive index ([2]; 293.15 K): 1.45967 ± 0.0008
refractive index ([2]; 298.15 K): 1.45766 ± 0.00075
refractive index ([2]; 313.15 K): 1.45365 ± 0.00076
refractive index ([2]; 333.15 K): 1.44662 ± 0.00078

CCCCn1cc[n+](C)c1.F[B-](F)(F)F [1-butyl-3-methylimidazolium tetrafluoroborate]
mass density ([1]; 293.15 K): 1202.9 ± 2 kg/m3
mass density ([1]; 298.15 K): 1199.4 ± 2 kg/m3
mass density ([1]; 313.15 K): 1188.7 ± 2 kg/m3
mass density ([1]; 333.15 K): 1174.6 ± 2 kg/m3
refractive index ([2]; 293.15 K): 1.42251 ± 0.00072
refractive index ([2]; 298.15 K): 1.4215 ± 0.00074
refractive index ([2]; 313.15 K): 1.41748 ± 0.00074
refractive index ([2]; 333.15 K): 1.41246 ± 0.00074

CCCCCCCCn1cc[n+](C)c1.O=S(=O)([N-]S(=O)(=O)C(F)(F)F)C(F)(F)F
mass density ([1]; 293.15 K): 1323.4 ± 2.1 kg/m3
mass density ([1]; 298.15 K): 1318.9 ± 2.1 kg/m3
mass density ([1]; 313.15 K): 1305.5 ± 2.1 kg/m3
mass density ([1]; 333.15 K): 1288 ± 2 kg/m3
refractive index ([2]; 293.15 K): 1.43457 ± 0.0008
refractive index ([2]; 298.15 K): 1.43256 ± 0.00075
refractive index ([2]; 313.15 K): 1.42854 ± 0.00075
refractive index ([2]; 333.15 K): 1.42251 ± 0.00076

CCCCCCCCCCCCCC[P+](CCCCCC)(CCCCCC)CCCCCC.O=S(=O)([N-]S(=O)(=O)C(F)(F)F)C(F)(F)F
mass density ([1]; 293.15 K): 1069.1 ± 2 kg/m3
mass density ([1]; 298.15 K): 1065.4 ± 2 kg/m3
mass density ([1]; 313.15 K): 1054.5 ± 2 kg/m3
mass density ([1]; 333.15 K): 1039.9 ± 2 kg/m3
refractive index ([2]; 293.15 K): 1.45164 ± 0.0008
refractive index ([2]; 298.15 K): 1.44963 ± 0.00075
refractive index ([2]; 313.15 K): 1.44561 ± 0.00076
refractive index ([2]; 333.15 K): 1.43858 ± 0.00078

CCCCCCCCCCn1cc[n+](C)c1.O=S(=O)([N-]S(=O)(=O)C(F)(F)F)C(F)(F)F
mass density ([1]; 293.15 K): 1282.8 ± 2 kg/m3
mass density ([1]; 298.15 K): 1278.3 ± 2 kg/m3
mass density ([1]; 313.15 K): 1265.3 ± 2 kg/m3
mass density ([1]; 333.15 K): 1248.2 ± 2 kg/m3
refractive index ([2]; 293.15 K): 1.43658 ± 0.00072
refractive index ([2]; 298.15 K): 1.43557 ± 0.00076
refractive index ([2]; 313.15 K): 1.43055 ± 0.00076
refractive index ([2]; 333.15 K): 1.42452 ± 0.00076

CCCCCCCCCCCCn1cc[n+](C)c1.O=S(=O)([N-]S(=O)(=O)C(F)(F)F)C(F)(F)F
mass density ([1]; 293.15 K): 1249 ± 2 kg/m3
mass density ([1]; 298.15 K): 1244.7 ± 2 kg/m3
mass density ([1]; 313.15 K): 1231.8 ± 2 kg/m3
mass density ([1]; 333.15 K): 1215.1 ± 2 kg/m3
refractive index ([2]; 293.15 K): 1.43958 ± 0.0008
refractive index ([2]; 298.15 K): 1.43758 ± 0.00075
refractive index ([2]; 313.15 K): 1.43356 ± 0.00075
refractive index ([2]; 333.15 K): 1.42754 ± 0.00076
